{
  "source": "patent US20060100263A1",
  "about": "“Antipyretic compositions and methods” (priority 2004, published 2006)",
  "key": {"[1]": {"test": "oral temperature of normal human subjects", "format": "in vivo", "details": "600 mg PO single dose; for Oral Temperature at Indicated Times of Treatment: normal humans", "experimental": "Normal humans received either a placebo or 600 mg of bicifadine HCl (PO). Oral temperature readings were taken as part of an assessment of vital signs before and after administration of a single dose.\nOral temperature readings were taken as part of an assessment of vital signs before and after administration of a single dose of bicifadine to normal humans. The placebo group consisted of 150 subjects, while the bicifadine HCl group consisted of 151 individuals."}, "α2 adrenergic receptor": {"test_system": "α2 adrenergic receptor", "test": "α2 adrenergic receptor binding"}, "[2]": {"molecular_target": "5-HT2A serotonin receptor (Homo sapiens, UniProt P28223)", "sequence (P28223 whole entry)": "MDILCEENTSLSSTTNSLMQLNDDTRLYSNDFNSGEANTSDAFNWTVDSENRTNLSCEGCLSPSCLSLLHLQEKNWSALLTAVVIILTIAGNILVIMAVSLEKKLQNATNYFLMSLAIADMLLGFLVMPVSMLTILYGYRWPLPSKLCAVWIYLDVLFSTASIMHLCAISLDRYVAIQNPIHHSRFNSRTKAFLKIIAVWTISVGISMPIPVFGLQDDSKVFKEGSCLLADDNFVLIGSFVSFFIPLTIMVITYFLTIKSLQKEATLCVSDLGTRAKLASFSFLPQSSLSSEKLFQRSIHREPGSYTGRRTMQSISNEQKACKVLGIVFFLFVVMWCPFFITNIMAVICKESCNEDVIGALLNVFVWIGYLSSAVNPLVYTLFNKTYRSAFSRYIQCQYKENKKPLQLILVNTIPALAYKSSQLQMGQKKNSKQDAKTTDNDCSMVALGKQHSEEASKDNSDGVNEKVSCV", "test": "radioligand binding to 5-HT2A serotonin receptor"}, "α1 adrenergic receptor": {"test_system": "α1 adrenergic receptor", "test": "[3H]prazosin binding, rat cerebral cortex preparation", "experimental": "At the end of 60 min, the assay was terminated by vacuum filtration and the amount of radioactivity deposited on the filter measured by scintillation counting."}, "[3]": {"test": "yeast-induced pyresis model in rats", "format": "in vivo, rat", "experimental": "(§1) Groups of 6 rats were injected subcutaneously with saline solution or 40% brewers' yeast 18 hours prior to oral administration of bicifadine HCl or aspirin. The yeast was suspended in 0.85% saline and doses in a volume of 10 ml/kg. Rectal temperatures were recorded with a YSI 43TA telethermometer just prior to oral drug administration, and hourly for 3-4 hours. The post-treatment temperatures were compared to the initial temperatures of each group. Control animals were treated with vehicle and tested concurrently. In FIG. 1, the solid line represents the mean rectal temperature of normal rats (99.5° F.) and the standard error of that measure (0.1° F.) is indicated by the dashed lines.\n(§2) The results shown in FIG. 1 indicate that rats treated with brewers' yeast 18 hours prior to drug administration develop a febrile response, manifested as a mean rectal temperature of 101.1° F. In contrast, normal rats treated only with vehicle have a rectal temperature of 99.5° F., 1.6° F. lower than the yeast-treated rats."}, "[4]": {"test": "blood pressure in human subjects", "format": "in vivo"}, "[5]": {"test": "average body temperature of normal rats", "format": "in vivo, rat", "details": "for Mean Rectal Temperature at Indicated Hours Post-Treatment: 100 mg/kg PO", "experimental": "as §1, §2"}, "[6]": {"molecular_target": "recombinant human cyclooxygenase1 (COX1) (Homo sapiens, UniProt P23219)", "sequence (P23219 24-599)": "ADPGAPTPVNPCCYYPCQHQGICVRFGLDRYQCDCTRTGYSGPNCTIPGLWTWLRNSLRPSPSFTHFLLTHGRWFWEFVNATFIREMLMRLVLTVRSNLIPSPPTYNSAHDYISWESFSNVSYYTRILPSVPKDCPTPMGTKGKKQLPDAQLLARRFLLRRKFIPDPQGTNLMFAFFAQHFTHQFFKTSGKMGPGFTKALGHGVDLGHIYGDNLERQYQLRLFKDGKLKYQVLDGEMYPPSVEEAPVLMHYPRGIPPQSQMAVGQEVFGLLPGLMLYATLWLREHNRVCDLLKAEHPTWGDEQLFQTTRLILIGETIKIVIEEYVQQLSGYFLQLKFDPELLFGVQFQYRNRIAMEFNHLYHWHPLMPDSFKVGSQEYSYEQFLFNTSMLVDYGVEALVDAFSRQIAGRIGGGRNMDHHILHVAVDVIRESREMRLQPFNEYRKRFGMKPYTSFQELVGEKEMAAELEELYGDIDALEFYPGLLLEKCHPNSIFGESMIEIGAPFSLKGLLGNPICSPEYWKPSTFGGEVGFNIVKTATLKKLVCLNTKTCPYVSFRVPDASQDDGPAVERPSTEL", "test": "COX1 PGE2 synthesis assay", "details": "0.1, 1, or 10 μM", "protocol": "The assay mixture was incubated (10 min at 25° C. for COX1, 5 min-at 22° C. for COX2), then stopped and the amount of reaction product (PGE2) formed was measured by an enzyme-linked immunosorbent assay."}, "[7]": {"molecular_target": "T1, recombinant human cyclooxygenase2 (COX2) (Homo sapiens, UniProt P35354)", "T1 sequence (P35354 18-604)": "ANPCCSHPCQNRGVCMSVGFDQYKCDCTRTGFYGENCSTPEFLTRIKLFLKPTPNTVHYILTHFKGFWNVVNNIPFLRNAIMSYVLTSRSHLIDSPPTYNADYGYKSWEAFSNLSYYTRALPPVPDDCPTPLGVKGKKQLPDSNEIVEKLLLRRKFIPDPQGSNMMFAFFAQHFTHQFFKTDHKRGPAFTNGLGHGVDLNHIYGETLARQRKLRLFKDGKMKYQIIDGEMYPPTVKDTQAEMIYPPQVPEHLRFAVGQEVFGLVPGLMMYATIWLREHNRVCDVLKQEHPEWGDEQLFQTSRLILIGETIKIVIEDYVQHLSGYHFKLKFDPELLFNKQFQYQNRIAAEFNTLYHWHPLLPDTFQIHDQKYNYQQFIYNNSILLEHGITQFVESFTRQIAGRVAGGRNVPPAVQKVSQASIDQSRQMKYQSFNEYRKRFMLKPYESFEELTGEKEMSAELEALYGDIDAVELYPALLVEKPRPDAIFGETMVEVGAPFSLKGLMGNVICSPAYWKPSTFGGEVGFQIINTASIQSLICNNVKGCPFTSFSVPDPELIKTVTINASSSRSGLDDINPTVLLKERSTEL", "test": "COX2 PGE2 synthesis assay", "details": "0.1, 1, or 10 μM", "protocol": "This was determined in assays using the rate limiting enzyme for prostaglandin synthesis, recombinant human cyclooxygenasel (COX1) and cyclooxygenase2 (COX2) expressed in Sf9 cells using a modified technique of Glaser et al (1995). These cells were incubated with arachidonic acid as the substrate (4, and 2 μM, respectively) and 0.1, 1, or 10 μM concentrations of bicifadine HCl in a suitable assay buffer. The assay mixture was incubated (10 min at 25° C. for COX1, 5 min-at 22° C. for COX2), then stopped and the amount of reaction product (PGE2) formed was measured by an enzyme-linked immunosorbent assay."}},
  "note": "pKi: −log10 of the molar value. Where a name gives a salt, the structure may show the parent alone. Marks after values point to notes of the source that are not given here.",
  "data": [
    {"molecule": "Cc1ccc([C@]23CNC[C@H]2C3)cc1", "note": "(racemic) [Bicifadine HCl, (±)-1-(4-methylphenyl)-3-azabicyclo[3.1.0]hexane hydrochloride]", "values": [
      {"measurement": "effect on normal human oral temperature (hypothermia)", "setting": "[1]", "result": "did not consistently lower normal human oral temperature"},
      {"measurement": "Oral Temperature at Indicated Times of Treatment", "setting": "[1]; 0.5 hr", "result": 98.1, "unit": "° F."},
      {"measurement": "Oral Temperature at Indicated Times of Treatment", "setting": "[1]; 1 hr", "result": 98.1, "unit": "° F."},
      {"measurement": "Oral Temperature at Indicated Times of Treatment", "setting": "[1]; 2 hr", "result": 98.1, "unit": "° F."},
      {"measurement": "Oral Temperature at Indicated Times of Treatment", "setting": "[1]; 3 hr", "result": 98.0, "unit": "° F."},
      {"measurement": "Oral Temperature at Indicated Times of Treatment", "setting": "[1]; 4 hr", "result": 98.1, "unit": "° F."},
      {"measurement": "Oral Temperature at Indicated Times of Treatment", "setting": "[1]; 5 hr", "result": 98.2, "unit": "° F."},
      {"measurement": "Oral Temperature at Indicated Times of Treatment", "setting": "[1]; 6 hr", "result": 98.2, "unit": "° F."},
      {"measurement": "Oral Temperature at Indicated Times of Treatment", "setting": "[1]; Follow-up", "result": 97.8, "unit": "° F."},
      {"measurement": "Oral Temperature at Indicated Times of Treatment", "setting": "[1]; Pre-Dose", "result": 98.1, "unit": "° F."},
      {"measurement": "occupying binding sites on α2 adrenergic receptor", "setting": "α2 adrenergic receptor", "result": "capable of occupying binding sites"},
      {"measurement": "inhibition of radioligand binding to 5-HT2A serotonin receptor", "setting": "[2]", "result": "significantly inhibited radioligand binding"},
      {"measurement": "occupying binding sites on α1 adrenergic receptor", "setting": "α1 adrenergic receptor", "result": "capable of occupying binding sites"},
      {"measurement": "pKi", "setting": "α1 adrenergic receptor; 0.25 nM [3H]prazosin, 60 min at 22° C.", "result": 6.00},
      {"measurement": "rectal temperature of yeast-fevered rats", "setting": "[3]; 50 mg/kg PO, by the first hour after administration, vs pre-treatment temperature", "result": "significantly reduced rectal temperature"},
      {"measurement": "duration of antipyretic effect", "setting": "[3]; 100 mg/kg PO", "result": 4, "unit": "h"},
      {"measurement": "rectal temperature of yeast-fevered rats", "setting": "[3]; 100 mg/kg PO, normal rat temperature 99.5 °F", "result": "decrease rectal temperature to levels at or below normal"},
      {"measurement": "antipyretic potency compared with aspirin", "setting": "[3]; aspirin 200 mg/kg PO", "result": "more potent antipyretic than aspirin"},
      {"measurement": "alterations in blood pressure", "setting": "[4]", "result": "did not cause significant alterations in blood pressure"},
      {"measurement": "effect on rectal temperature of normal rats (hypothermia)", "setting": "[5]", "result": "did not consistently lower the rectal temperature of normal rats"},
      {"measurement": "Mean Rectal Temperature at Indicated Hours Post-Treatment", "setting": "[5]; 0 h", "result": 98.9, "unit": "° F."},
      {"measurement": "Mean Rectal Temperature at Indicated Hours Post-Treatment", "setting": "[5]; 1 h", "result": "97.9* ° F."},
      {"measurement": "Mean Rectal Temperature at Indicated Hours Post-Treatment", "setting": "[5]; 2 h", "result": 98.3, "unit": "° F."},
      {"measurement": "Mean Rectal Temperature at Indicated Hours Post-Treatment", "setting": "[5]; 3 h", "result": 98.2, "unit": "° F."},
      {"measurement": "Mean Rectal Temperature at Indicated Hours Post-Treatment", "setting": "[5]; 4 h", "result": 97.5, "unit": "° F."},
      {"measurement": "inhibitory effect on PGE2 synthesis by COX1", "setting": "[6]", "result": "no significant inhibitory effect"},
      {"measurement": "inhibitory effect on PGE2 synthesis by COX2", "setting": "[7]", "result": "no significant inhibitory effect"}
    ]}
  ]
}
